In a melting point compilation (Tetko et al.; mined from patent text by program, amines drawn as free bases though some values may be those of a salt):

Row | SMILES | melting point [°C]
1 | CN(CC1=NC(=S)N=N1)C(COCc1cc(C(F)(F)F)cc(C(F)(F)F)c1)C(c1ccccc1)c1ccccc1 (stereo unspecified) | 192 to 194
2 | CC(=O)N1C(=O)C(C(=O)Cc2ccccc2)c2ccccc21 (stereo unspecified) | 149 to 151
3 | CCCCCC1=CCC(c2cc(F)c(C(=O)O)c(F)c2)C=C1 (stereo unspecified) | 65
4 | O=C1CCC(N2C(=O)c3cccc(Nc4ccc5c(c4)OCO5)c3C2=O)C(=O)N1 (stereo unspecified) | > 260
5 | O=C(O)c1nccc(OCc2ccccc2)c1OCc1ccccc1 | 120
6 | Cc1ccc2c(NCc3ccc(NC(=O)C4CCN(Cc5ccccc5)CC4)cc3)nc(N(C)C)nc2c1 | 100
7 | CCc1cnc(N)c2ccccc12 | 84 to 85
8 | Nc1nc(F)cc(Oc2ccc(Cl)cc2)n1 | 223 to 226
9 | FC(F)(F)c1cccc(Nc2nccc(-c3ccnc(Cl)c3)n2)c1 | 169 to 171
10 | CC(=O)Nc1ccc(CNc2n[nH]c3ncnc(Nc4cccc(Cl)c4)c23)cc1 | > 260
11 | Cc1cc(F)ccc1-c1cc(N2CCS(=O)(=O)CC2)ncc1N(C)C(=O)C(C)(C)c1cc(C(F)(F)F)cc(C(F)(F)F)c1 | 135 to 138
12 | CCOC(=O)C1(C(=O)OCC)N(c2ccccc2)C(=O)CC1(C)O (stereo unspecified) | 98 to 99
13 | CCc1nc2c(N)nc3cc(OCC(=O)N4CCOCC4)ccc3c2n1CCOc1ccccc1 | 208 to 209
14 | C=CC(c1ncc([N+](=O)[O-])n1C)N(C)C (stereo unspecified) | 110 to 113
15 | CCOC(=O)C1=C(C(F)(F)F)NC2=C(C(=O)CCC2)C1c1nccn1C (stereo unspecified) | 197 to 198
16 | CNC(=O)C1(CCC#N)c2ccccc2-c2ccccc21 | 185 to 187
17 | COC(=O)CCC(=O)c1ccc(OCc2ccsc2)cc1O | 100 to 102
18 | COc1ccc(Cc2nc3n(-c4c(Cl)cc(Cl)cc4Cl)[nH]c(C(C)C)c-3c(=O)n2)cc1 | 183 to 185
19 | NS(=O)(=O)c1cncc([N+](=O)[O-])c1 | 168
20 | CC1CN(C(=O)NC(CS)Cc2ccccc2)CC(C)O1 (single isomer, unassigned; (+)) | 120 to 122
21 | CN1CCN(C2c3ccccc3CC2O)CC1 (stereo unspecified) | 132
22 | C=CC(=O)NCC(=O)O | 124 to 126
23 | Cn1nc(Cl)c(C(=O)C(Br)c2ccccc2)c1Cl (stereo unspecified) | 74.5 to 75.5
24 | Cc1cc(C2(C(F)(F)F)CN(c3ccc(C(=O)NCC(F)(F)F)cc3)CO2)ccc1F (stereo unspecified) | 151 to 152
25 | N#CCc1c[nH]c2cccnc12 | 201 to 202
26 | O=[N+]([O-])c1ccc(O)cc1SCCO | 161

Row | SMILES | melting point [°C]
27 | CCCCC#Cc1cc(C=CCC(=O)O)ccc1OC | 102
28 | COc1ccc2c(c1)C1=C(SCC3(CCN(CC(O)COc4ccc(C(C)(C)C)cc4)CC3)O1)C(=O)C2=O (stereo unspecified) | 153 to 156
29 | Oc1ccc2c(c1)OC(c1ccc(OCCN3CCCCC3)cc1)c1c-2ccc2cc(O)ccc12 (stereo unspecified) | 158 to 161
30 | N#CCOS(=O)(=O)c1cccc([N+](=O)[O-])c1 | 66 to 69
31 | CCOC(=O)Nc1ccc(N(CC)CC)cc1 | 31 to 33
32 | CCS(=O)(=O)Nc1nc(CN2CCC(OC(c3ccccc3)c3ccccc3)CC2)cs1 | 190 to 191
33 | CCCCCCS(=O)(=O)c1ccc(Oc2ccc(Br)cc2)nc1 | 94
34 | Cc1c(-c2ccncc2)[nH]c2c1C(=O)CC(C)(C)C2 | 241 to 242
35 | NC(=O)OC1CCN(C(=O)Cn2c(=O)sc3ccc(Cl)cc32)CC1 | 210 to 212
36 | Oc1nc(O)c2occc2n1 | 233
37 | Fc1ccc(N2CCN(CCCNc3ccc(-n4ccnc4)cc3)CC2)cc1 | 164 to 166
38 | Cc1nc(C#Cc2ccccc2)n(C)c1-c1nc(C2CC2)no1 | 88
39 | Cc1ccc(-c2cccnc2)nc1 | 40 to 41
40 | COc1cccc(OC)c1C(=O)NCC(=O)N1c2ccccc2N(Cc2ccccc2)C(=O)[C@H]2CCC[C@H]21 (relative stereo) | 182 to 184
41 | CCCCCC(CC(=O)Nc1cc(C(=O)O)ccc1C(C)(C)C)c1ccc(C)cc1OC (stereo unspecified) | 164 to 165
42 | Nc1nc(CCl)cc(OCC(F)(F)F)n1 | 77 to 78
43 | CCOC(=O)c1ccc(NO)cc1 | 72.5
44 | O=C(Nc1ccc([N+](=O)[O-])cc1Cl)OCCCl | 128 to 130
45 | Nc1cc(CO)cc(S(N)(=O)=O)c1Oc1cccc(C(F)(F)F)c1 | 133 to 134
46 | CCCCOc1cc2c(Nc3cc(OC)c(Cl)cc3Cl)c(C#N)cnc2cc1OCCOC | 166 to 167
47 | CN(c1ccc(O)cc1)c1nc2cc(Cl)ccc2o1 | 216 to 217
48 | CC(C)(C)OC(=O)C1=Cc2cc(Br)ccc2OC1 | 96 to 97
49 | O=C(O)CCCc1cc2nc(Cl)ccc2n1S(=O)(=O)c1ccc(-c2cccnc2)cc1 | 141
50 | Cc1ccc2nc(-c3cc(C(F)(F)F)nn3-c3ccc(S(C)(=O)=O)cc3)sc2c1 | 202 to 204
51 | O=C(O)[C@@H]1CCCN1C(=O)c1cc2cc3c(cc2c2cc(OCc4ccccc4)ccc12)OCO3 | 221 to 223
52 | CC(=O)N(C)c1c(C(=O)C2CCCCC2)[nH]c2cc(Cl)ccc12 | 162 to 163

Row | SMILES | melting point [°C]
53 | CC(=O)NCC(=NNC(N)=S)c1ccccc1 | 208 to 211
54 | C#CCN(Cc1ccc2nc(C)[nH]c(=O)c2c1)c1ccc(C(=O)NCC(OC(C)=O)c2ccc([N+](=O)[O-])cc2)cc1 (stereo unspecified) | 198 to 203
55 | c1csc(-c2nc(COc3ccc(CCCn4ccnc4)cn3)co2)c1 | 86 to 87
56 | COc1cc(Cl)c(N=C2NCCN2OCc2ccccc2)c(Cl)c1 | 90 to 92
57 | O=C1COc2cc(C(=O)N3CCOCC3)ccc2N1 | 186 to 188
58 | COc1cc(Nc2nn(Cc3ccccc3)c(=O)c3ccccc23)cc(OC)c1OC | 206 to 207
59 | COC(=N)Nc1nc(Cl)cc(Cl)n1 | 178
60 | NNC(=O)C(Cc1cccs1)NC(=O)[C@H](Cc1cccc2ccccc12)NC(=O)OCc1ccccc1 (mixture of isomers) | 163 to 164
61 | O=C1c2ccccc2C(=O)N1[C@@H]1C=CC[C@H]1O (relative stereo) | 114 to 116
62 | CCC(=NOC)C(=NO)C(=O)NC | 168 to 170
63 | CCn1c(C)nc2cc(S(C)(=O)=O)c(Cl)c(N)c21 | 179 to 186
64 | CC/C(=N\OC(F)F)c1ccc(Cl)c2nc3n(c12)CCCN3c1c(C)nc(OC)nc1C | 199 to 200
65 | O=C(NC1CCCCC1)C1=C(c2ccccc2)C(c2ccccc2)OC1=O (stereo unspecified) | 151 to 153
66 | CCOCCn1c(CN2CCN(CC(O)COc3ccccc3)CC2)nc2cccnc21 (stereo unspecified) | 102
67 | CCOC(=O)CC[C@H](NC(=O)c1ccc(N2CCN(c3c(N)nc(N)nc3CC)CC2)cc1)C(=O)OCC | 226 to 228
68 | CC(C)Cn1cnc2c(C(N)=O)nc3ccccc3c21 | 225 to 226
69 | COc1ncnc2nc(-c3ccccc3)cnc12 | 205 to 207
70 | CCCCCCC(CCCCCC)N1C(=O)c2ccc3c4cccc5c(NC(C)=O)ccc(c6ccc(c2c36)C1=O)c54 | > 230
71 | O=C1COc2c1ccc1ccccc21 | 191 to 192
72 | CCc1c(C(C#N)c2cc(C)cc(C)c2)[nH]c(=O)[nH]c1=O (stereo unspecified) | 105 to 107
73 | O=S1(=O)NCN(C2CC2)c2c(F)cc(F)c(F)c21 | 149 to 151
74 | CNC(=O)On1c(C(F)(F)F)nc2nc(Br)c(Cl)c(Br)c21 | 216
75 | Cn1c(C(=O)OC(C)(C)C)c(O)c2cc(OCc3ccccc3)ccc21 | 101 to 103
76 | Cn1ncnc1COc1nn2c(-c3ccccc3)nnc2cc1C1CCCCC1 | 192
77 | CCOc1ncnc2c1sc1nc(N(C)C)c3c(c12)CC(C)(C)CC3 | 220 to 221
78 | CCCOc1ccccc1-c1nc2cc([N+](=O)[O-])ccc2c(=O)[nH]1 | 138

Row | SMILES | melting point [°C]
79 | COc1cc(C)nc(N(C)C(=O)NS(=O)(=O)c2cc(Cl)ccc2Cl)n1 | 182 to 185
80 | CN1CCCCNC1=C[N+](=O)[O-] | 88 to 89
81 | Cn1c(=O)ccc2cc(COc3cc(F)cc(C4(SC(C)(C)C)CCOCC4)c3)ccc21 | 54 to 56
82 | CCCCn1c(C)nnc1SC(N)=O | 112 to 114
83 | Fc1cccc(F)c1C1=N[C@@H](c2ccc(-c3ccc(S)cc3)cc2)CO1 | 133 to 135
84 | CC(=O)Nc1ccc(OC(=O)C=CC=C(C)C=CC=C(C)C=CC2=C(C)CCCC2(C)C)cc1 | 219 to 222
85 | COc1cc(N2CCC(N3CCOCC3)C2)ccc1Nc1ncc2ccc(-c3ccccc3OC)n2n1 (stereo unspecified) | 80 to 87
86 | O=[N+]([O-])c1ccccc1-c1ccc(CNc2nc(C(F)(F)F)nc3c2CCCC3)cc1 | 150 to 151
87 | O=Cc1ccc2c(c1)c1cc(C=O)ccc1n2Cc1ccccc1 | 222 to 224
88 | O=c1nc(-c2cccc(Oc3ccccc3)n2)sc2ccccc12 | 161
89 | CC(C)N1CCN(Cc2ccc3c(c2)-c2[nH]nc(-c4ccsc4)c2C3)CC1 | 182 to 185
90 | O=C1NC2CCCCN2C12CCNCC2 (stereo unspecified) | 193
91 | COc1c(Cl)ccc(C(=O)O)c1F | 183 to 184
92 | Cc1cccc(-n2c(-c3sc(Nc4ccccc4)nc3-c3ccccc3)nc3ccccc3c2=O)c1 | 105 to 107
93 | O=S(=O)(Cl)c1cc(S(=O)(=O)Cl)c2cc(S(=O)(=O)Cl)cc(S(=O)(=O)Cl)c2c1 | 263 to 270
94 | N#Cc1c(Cl)cnc2cc(I)sc12 | 209 to 211
95 | COc1cc2c(cc1Cl)C(O)(c1ccccc1Cl)C(=O)N2 (stereo unspecified) | 237 to 240
96 | O=C(O)CCCC/C=C(\c1ccc(C2=N[C@H](C(=O)NCCCCC3CCCCC3)CO2)cc1)c1cccnc1 | 61
97 | Cc1cc(=O)[nH]c(SCc2ccc(Br)cc2N(C)C)n1 | 163 to 164
98 | COc1ccc(OC(C(=O)N(C)C)C2(O)CCCCC2)cc1 (stereo unspecified) | 98 to 99
99 | O=C(CCc1cccc([N+](=O)[O-])c1)c1c(O)c2cccnc2n(-c2ccccc2)c1=O | 164 to 166
100 | Cc1cccc(CCOc2cccc(-c3cccc(C(=O)O)c3)n2)c1 | 125 to 126
101 | CCc1nc([N+](=O)[O-])c(CBr)n1C | 91 to 93
